From article PMC10380841, “Synthesis, Characterization and Cytotoxic Evaluation of New Pyrrolo[1,2-b]pyridazines Obtained via Mesoionic Oxazolo-Pyridazinones” (International Journal of Molecular Sciences, 2023) come the findings set out here.

Entries after “also recorded” stand apart in the source; their conditions may differ. Read-outs that look alike come from different tables or passages of the source.

In one data set the test system is Triticum aestivum L. Kind of data set: Triticum test, phytotoxicity (main root length). The data set is classed as in vivo. Particulars: 10–1000 µM. As for the experimental part:
Phytobiological testing (Triticum test) was performed by the Constantinescu method which consists in determining the maximum active dilution of a compound. Depending on the duration of action, it can influence root elongation and the […] film. […] Embryonic wheat roots were obtained by germinating homogeneous wheat caryopses in Linhart pots. Then the caryopses with a main root length of 1 cm were placed in the test solutions. For the determination of the action of each compound, five dilutions in the concentration range of 10–1000 µM were obtained and 11 caryopses were placed in them. Petri dishes containing 15 mL of diluted solution were kept under constant conditions of temperature (25 °C), and humidity (60%), in the absence of light. […] The results were expressed in comparison with a 1% DMSO control.
Statistical analyses were performed using the computing and programming environment R, R, v. 4.2.1 [68], under Rstudio, v. 2022.07.2+576 “Spotted Wakerobin” for Windows (RStudio, PBC, Boston, 2022), both for the Triticum and Artemia tests. It used a parametric mixed-effects model (R package “lme4”) and a robust mixed-effects model (R package “robustlmm”), in which root length measurements (Triticum) from all three days were used as the dependent variable, whereas compound, concentration and time were treated as fixed effects, with time (day of measurement) also treated as a random effect. Assessing statistical significance for mixed-effects statistical models is controversial and complex, but as a pragmatic way of working, we have estimated p-values using the Kenward–Rogers approximation (R package “sjPlot”). A variety of R base functions and R packages were used to diagnose the regression models (“car” [72], “MASS” [73], and “gvlma” [74]). Mixed boxplot–dotplot plots were generated using the “ggplot2” package.
The “drc” R package was used to estimate IC50 values for the Triticum bioassay by nonlinear modeling. For Triticum, the relationship between root length and concentration was modeled using Weibull functions with 2, 3, or 4 parameters, depending on the data distribution, the models being selected from a range of several models with different functions and parameters, based on the Akaike’s information criterion (AIC).

For data set [1], the system named is LoVo colon adenocarcinoma cells. In words: MTS cytotoxicity assay, LoVo. The data set is classed as cell-based, human. The conditions noted are these: Homo sapiens.
Data set [2] relates to Triticum vulgare root tips. In words: Microscopic examination of Triticum root tips (mitotic film changes). The data set is classed as in vivo. Particulars: 1000 μM, 24 h contact. As for the experimental part: Microscopic examination of Triticum vulgare root tips followed the mitotic film changes induced by the tested compounds. Observations were made after 24 h of contact of the caryopses with the test solutions. The study was made in comparison with DMSO control maintained under the same conditions as the samples. To obtain microscopic preparations, sectioning of wheat embryonic roots was carried out at about 5 mm from the tip and stained with dilute […] according to the La Cour procedure. The examination was conducted on a Euromex oxion series 110–240 V/50–60 Hz microscope with digital camera CEMEX 5 DC 5000 C and 40× and 100× lenses with cedar oil immersion (Sigma-Aldrich St. Louis, MO, USA).

`CCOC(=O)c1cc(CC)n2nc(-c3ccc(F)cc3)ccc12` [Compound 5e, Ethyl 7-ethyl-2-(4-fluorophenyl)pyrrolo[1,2-b]pyridazine-5-carboxylate]: the “effect on root length” value in the data set on Triticum aestivum L. (vs 1% DMSO control) was “concentration-dependent inhibitory effect”. In addition, the IC50 in the data set on Triticum aestivum L. (Triticum aestivum, 72 h, Triticum root length, measured over three days) is 607 µM; in data set [1] (24 h, read-out: IC50 LoVo 24 h) it was not below 400 µM; in data set [1] (48 h, read-out: IC50 LoVo 48 h) it was not below 400 µM. Also, in data set [2], the “mitotic film / cell changes in root tips” value is “undulated cell walls and modified shaped nuclei; also recorded: mitoinhibition”.
